{"source": "ChEMBL document CHEMBL1201862", "about": "“PubChem BioAssay data set” (2004)", "key": {"[1]": {"molecular_target": "Photoreceptor-specific nuclear receptor (Homo sapiens, UniProt Q9Y5X4)", "sequence (Q9Y5X4 whole entry)": "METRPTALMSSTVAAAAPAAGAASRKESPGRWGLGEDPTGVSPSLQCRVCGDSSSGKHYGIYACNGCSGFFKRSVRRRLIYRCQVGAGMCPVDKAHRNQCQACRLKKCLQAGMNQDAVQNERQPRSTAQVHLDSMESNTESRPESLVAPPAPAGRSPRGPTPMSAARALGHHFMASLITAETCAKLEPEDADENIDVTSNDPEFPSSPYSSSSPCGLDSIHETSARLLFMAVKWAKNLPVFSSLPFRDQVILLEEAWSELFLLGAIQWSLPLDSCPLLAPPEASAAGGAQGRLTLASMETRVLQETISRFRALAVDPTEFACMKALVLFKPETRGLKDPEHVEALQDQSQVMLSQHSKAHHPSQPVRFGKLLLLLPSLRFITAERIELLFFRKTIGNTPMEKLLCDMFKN", "assay": "ligands suppressing NR2E3 nuclear receptor activity – biochemical, TR-FRET, dose response (AID 463256)", "assay_type": "functional"}, "[2]": {"molecular_target": "Peroxisome proliferator-activated receptor gamma/Nuclear receptor corepressor 2 (Homo sapiens, UniProt P37231+Q9Y618)", "sequence (P37231 whole entry)": "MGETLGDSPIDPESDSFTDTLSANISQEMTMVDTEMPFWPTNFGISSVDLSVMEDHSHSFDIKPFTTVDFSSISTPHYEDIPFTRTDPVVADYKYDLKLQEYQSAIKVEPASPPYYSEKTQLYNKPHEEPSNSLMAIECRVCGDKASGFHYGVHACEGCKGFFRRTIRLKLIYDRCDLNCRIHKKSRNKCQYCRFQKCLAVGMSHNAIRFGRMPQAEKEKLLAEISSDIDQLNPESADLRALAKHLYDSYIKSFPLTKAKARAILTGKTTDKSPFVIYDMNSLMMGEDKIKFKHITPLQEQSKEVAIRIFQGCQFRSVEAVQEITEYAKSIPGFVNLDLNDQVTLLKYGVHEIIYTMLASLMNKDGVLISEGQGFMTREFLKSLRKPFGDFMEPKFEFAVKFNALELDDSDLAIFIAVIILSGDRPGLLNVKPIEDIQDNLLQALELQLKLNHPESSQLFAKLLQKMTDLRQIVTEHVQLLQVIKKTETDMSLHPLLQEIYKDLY", "sequence (Q9Y618 whole entry)": "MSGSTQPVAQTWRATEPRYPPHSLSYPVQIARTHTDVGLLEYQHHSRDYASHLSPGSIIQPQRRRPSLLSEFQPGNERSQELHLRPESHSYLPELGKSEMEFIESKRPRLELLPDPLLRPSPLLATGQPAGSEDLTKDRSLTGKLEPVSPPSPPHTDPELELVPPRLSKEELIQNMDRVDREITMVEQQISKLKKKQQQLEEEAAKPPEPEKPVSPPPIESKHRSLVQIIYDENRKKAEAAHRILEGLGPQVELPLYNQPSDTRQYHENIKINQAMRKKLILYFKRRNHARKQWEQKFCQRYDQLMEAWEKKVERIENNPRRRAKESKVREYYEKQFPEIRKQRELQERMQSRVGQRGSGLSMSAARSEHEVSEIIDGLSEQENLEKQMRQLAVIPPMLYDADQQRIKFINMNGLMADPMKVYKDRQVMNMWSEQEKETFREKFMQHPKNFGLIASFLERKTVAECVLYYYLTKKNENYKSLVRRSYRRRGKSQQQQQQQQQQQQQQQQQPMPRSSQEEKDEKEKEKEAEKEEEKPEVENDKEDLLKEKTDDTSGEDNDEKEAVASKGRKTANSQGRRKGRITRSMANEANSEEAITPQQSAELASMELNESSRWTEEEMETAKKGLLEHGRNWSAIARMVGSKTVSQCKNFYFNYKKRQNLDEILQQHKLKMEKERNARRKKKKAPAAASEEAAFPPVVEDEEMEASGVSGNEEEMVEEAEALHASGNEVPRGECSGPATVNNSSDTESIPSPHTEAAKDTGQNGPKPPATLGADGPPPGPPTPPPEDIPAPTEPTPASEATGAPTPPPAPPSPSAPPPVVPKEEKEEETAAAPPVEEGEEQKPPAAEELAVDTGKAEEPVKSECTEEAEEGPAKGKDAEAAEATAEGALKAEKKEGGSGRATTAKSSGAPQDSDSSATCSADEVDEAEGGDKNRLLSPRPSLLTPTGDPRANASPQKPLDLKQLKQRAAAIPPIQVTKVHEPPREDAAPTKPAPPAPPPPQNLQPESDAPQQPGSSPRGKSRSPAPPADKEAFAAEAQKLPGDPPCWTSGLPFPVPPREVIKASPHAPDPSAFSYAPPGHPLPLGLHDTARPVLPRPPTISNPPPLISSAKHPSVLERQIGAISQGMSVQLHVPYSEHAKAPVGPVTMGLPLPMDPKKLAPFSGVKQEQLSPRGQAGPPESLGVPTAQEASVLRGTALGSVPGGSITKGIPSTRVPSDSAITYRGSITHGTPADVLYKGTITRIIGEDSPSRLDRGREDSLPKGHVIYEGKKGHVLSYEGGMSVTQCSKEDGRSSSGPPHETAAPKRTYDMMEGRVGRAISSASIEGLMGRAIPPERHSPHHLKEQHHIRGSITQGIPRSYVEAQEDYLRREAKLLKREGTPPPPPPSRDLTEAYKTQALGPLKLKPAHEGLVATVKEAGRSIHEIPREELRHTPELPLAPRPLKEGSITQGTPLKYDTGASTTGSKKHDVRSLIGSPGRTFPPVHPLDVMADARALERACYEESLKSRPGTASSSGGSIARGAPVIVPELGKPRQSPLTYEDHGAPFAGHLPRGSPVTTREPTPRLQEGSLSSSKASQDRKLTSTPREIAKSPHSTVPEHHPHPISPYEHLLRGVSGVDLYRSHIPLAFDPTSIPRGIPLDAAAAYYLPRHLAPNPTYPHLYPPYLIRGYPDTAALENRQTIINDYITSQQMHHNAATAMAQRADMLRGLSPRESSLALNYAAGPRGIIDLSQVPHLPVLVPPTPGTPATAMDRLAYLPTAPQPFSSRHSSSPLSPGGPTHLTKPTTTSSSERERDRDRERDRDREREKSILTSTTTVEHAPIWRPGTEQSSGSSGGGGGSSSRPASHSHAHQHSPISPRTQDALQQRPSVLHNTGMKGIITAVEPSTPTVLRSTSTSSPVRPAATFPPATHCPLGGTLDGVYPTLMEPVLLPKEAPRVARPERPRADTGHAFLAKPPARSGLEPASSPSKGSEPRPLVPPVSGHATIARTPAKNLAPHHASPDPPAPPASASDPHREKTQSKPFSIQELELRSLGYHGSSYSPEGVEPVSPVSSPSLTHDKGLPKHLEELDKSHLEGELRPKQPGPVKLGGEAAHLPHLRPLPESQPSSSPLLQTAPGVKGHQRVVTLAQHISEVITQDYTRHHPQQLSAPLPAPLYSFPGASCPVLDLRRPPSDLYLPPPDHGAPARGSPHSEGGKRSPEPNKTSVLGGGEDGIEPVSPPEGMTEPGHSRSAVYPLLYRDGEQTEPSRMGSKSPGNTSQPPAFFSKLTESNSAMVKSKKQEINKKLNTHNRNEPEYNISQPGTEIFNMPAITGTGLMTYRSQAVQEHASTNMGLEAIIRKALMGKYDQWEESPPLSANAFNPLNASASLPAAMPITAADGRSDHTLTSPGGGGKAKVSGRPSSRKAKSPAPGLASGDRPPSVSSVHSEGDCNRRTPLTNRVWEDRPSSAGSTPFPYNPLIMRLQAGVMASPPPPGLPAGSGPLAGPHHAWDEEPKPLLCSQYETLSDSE", "assay": "Counterscreen for NR2E3 inverse agonists: TR-FRET-based biochemical high throughput dose response assay to identify inverse agonists of the interaction between peroxisome proliferator-activated receptor gamma (PPARg) and nuclear receptor co-repressor 2 (NCOR2).", "assay_type": "functional"}, "Protein Tat": {"molecular_target": "Protein Tat (Human immunodeficiency virus type 1 group M subtype B (isolate HXB2)(HIV-1), UniProt P04608)", "sequence (P04608 whole entry)": "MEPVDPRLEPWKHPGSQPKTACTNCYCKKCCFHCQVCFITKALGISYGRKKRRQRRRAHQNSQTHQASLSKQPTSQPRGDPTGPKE", "assay_type": "functional"}, "[3]": {"assay": "Trypanosoma cruzi growth suppression in host cells – NIH3T3 host cells, beta-gal luminescence, confirmation (AID 2044);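 note: intracellular parasites grown in NIH/3T3 mouse fibroblasts as host cells; luminescent beta-galactosidase reporter signal from transgenic T. cruzi replicating inside host cells; inhibitors lower the luminescence signal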", "assay_type": "functional, cell-based"}, "[4]": {"assay": "NIH3T3 cell viability loss – ATP luminescence, mouse fibroblasts, counter-screen, dose response (AID 2010);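 note: cells exposed to compound for about 90 hours before reading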", "assay_type": "functional, cell-based"}, "cells [5]": {"assay": "cells"}, "[6]": {"assay": "viability loss in THP-1 monocytes – THP-1 cells, cytotoxicity control for Vif-APOBEC3G degradation inhibitor project, dose response (AID 1117359)", "assay_type": "functional", "settings": "THP-1"}, "[7]": {"molecular_target": "T1, Tyrosine-protein phosphatase non-receptor type 7 (Homo sapiens, UniProt P35236)", "T1 sequence (P35236 whole entry)": "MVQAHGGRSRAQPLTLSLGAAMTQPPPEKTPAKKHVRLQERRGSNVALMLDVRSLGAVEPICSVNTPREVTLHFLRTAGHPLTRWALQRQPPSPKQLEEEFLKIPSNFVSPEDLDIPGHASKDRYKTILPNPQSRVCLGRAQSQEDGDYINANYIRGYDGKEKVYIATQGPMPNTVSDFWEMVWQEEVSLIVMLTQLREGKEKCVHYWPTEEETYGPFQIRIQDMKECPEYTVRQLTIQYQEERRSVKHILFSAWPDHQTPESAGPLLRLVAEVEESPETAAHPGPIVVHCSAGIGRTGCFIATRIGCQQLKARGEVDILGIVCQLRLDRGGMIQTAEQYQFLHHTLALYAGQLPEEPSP", "assay": "HePTP tyrosine phosphatase activity blockers – biochemical, absorbance, leukemia target, primary screen (AID 521)", "assay_type": "functional"}, "Prothrombin": {"molecular_target": "Prothrombin (Bos taurus, UniProt P00735)", "assay": "thrombin protease inhibitors – biochemical, fluorescence polarization, uHTS hits, dose response (AID 602369)", "assay_type": "functional"}, "[8]": {"molecular_target": "72 kDa type IV collagenase (Homo sapiens, UniProt P08253)", "sequence (P08253 whole entry)": "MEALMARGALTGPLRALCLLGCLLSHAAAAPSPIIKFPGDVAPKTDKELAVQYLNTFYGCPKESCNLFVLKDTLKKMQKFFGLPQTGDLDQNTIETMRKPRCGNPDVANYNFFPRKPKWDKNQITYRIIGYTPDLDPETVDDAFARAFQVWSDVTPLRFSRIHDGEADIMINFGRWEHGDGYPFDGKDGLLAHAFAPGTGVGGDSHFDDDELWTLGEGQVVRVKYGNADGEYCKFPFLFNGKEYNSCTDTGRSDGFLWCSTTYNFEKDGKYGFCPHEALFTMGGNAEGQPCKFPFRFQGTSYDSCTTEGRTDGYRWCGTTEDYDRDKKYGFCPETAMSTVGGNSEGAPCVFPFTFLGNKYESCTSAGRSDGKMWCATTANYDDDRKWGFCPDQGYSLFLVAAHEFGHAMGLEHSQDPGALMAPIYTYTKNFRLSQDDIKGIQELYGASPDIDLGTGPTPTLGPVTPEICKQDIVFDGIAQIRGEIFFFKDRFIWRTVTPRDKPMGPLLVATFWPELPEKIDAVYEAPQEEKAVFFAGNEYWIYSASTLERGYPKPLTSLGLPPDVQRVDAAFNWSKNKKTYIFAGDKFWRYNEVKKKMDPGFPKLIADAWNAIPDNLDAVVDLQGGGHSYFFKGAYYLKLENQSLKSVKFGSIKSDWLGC", "assay": "Dose Response validation of uHTS RPN11 inhibitor hits using a MMP-2 Fluorescence assay.", "assay_type": "functional"}, "[9]": {"molecular_target": "26S proteasome non-ATPase regulatory subunit 14 (Homo sapiens, UniProt O00487)", "sequence (O00487 whole entry)": "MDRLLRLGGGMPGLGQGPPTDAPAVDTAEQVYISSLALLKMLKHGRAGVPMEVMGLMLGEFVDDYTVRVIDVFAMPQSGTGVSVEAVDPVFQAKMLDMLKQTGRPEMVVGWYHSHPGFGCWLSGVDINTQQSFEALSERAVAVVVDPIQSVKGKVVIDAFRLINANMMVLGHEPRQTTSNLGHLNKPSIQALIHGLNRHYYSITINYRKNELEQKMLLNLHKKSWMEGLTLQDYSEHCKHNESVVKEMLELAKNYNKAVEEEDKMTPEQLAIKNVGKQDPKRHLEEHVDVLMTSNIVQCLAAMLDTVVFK", "assay": "inhibition of proteasome subunit RPN11 – biochemical, fluorescence polarization, uHTS hits, confirmation (AID 602368)", "assay_type": "functional"}, "[10]": {"assay": "Luminescence Cell-Based Dose Response to Identify Activators of 5'UTR Stem-Loop Driven Prion Protein mRNA Translation in H4-C Neuroglioblastoma Cells. [Related pubchem assays: 1829 (Project Summary), 1814 (Primary HTS)]", "assay_type": "functional"}, "[11]": {"assay": "Luminescence Cell-Based Dose Confirmation HTS to Identify Activators of 5'UTR Stem-Loop Driven Alpha-Synuclein mRNA Translation in H4 Neuroglioblastoma Cells. [Related pubchem assays: 1829 (Project Summary), 1814 (Primary HTS)]", "assay_type": "functional"}, "Protein skinhead-1": {"molecular_target": "T2, Protein skinhead-1 (Caenorhabditis elegans, UniProt P34707)", "T2 sequence (P34707 whole entry)": "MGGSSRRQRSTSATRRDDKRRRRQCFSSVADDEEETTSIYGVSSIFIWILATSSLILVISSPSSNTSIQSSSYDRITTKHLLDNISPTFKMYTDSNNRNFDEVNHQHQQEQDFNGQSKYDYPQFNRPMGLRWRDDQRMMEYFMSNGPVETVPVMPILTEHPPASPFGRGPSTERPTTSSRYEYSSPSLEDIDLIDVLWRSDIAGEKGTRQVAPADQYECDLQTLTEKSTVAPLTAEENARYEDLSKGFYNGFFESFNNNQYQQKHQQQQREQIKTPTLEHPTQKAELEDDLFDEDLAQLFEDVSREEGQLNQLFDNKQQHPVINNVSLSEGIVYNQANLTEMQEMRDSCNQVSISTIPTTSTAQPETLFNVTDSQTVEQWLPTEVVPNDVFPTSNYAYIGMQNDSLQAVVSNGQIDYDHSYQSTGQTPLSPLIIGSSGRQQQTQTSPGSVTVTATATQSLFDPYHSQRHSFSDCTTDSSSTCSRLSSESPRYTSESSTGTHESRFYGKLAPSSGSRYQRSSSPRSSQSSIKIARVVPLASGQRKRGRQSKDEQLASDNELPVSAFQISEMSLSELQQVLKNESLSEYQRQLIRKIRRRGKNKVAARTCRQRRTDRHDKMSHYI", "assay_type": "functional"}, "[12]": {"assay": "Luminescence Cell-Based Dose Response to Identify Activators of Luciferase Translation or Activity in H4-C Neuroglioblastoma Cells. [Related pubchem assays: 1829 (Project Summary), 1814 (Primary HTS)]", "assay_type": "functional"}, "[13]": {"assay": "Luminescence Cell-Based Dose Response HTS to Identify Activators of Luciferase Translation or Activity in H4 […] Cells. [Related pubchem assays: 1829 (Project Summary), 1814 (Primary HTS)]", "assay_type": "functional"}, "HeLa": {"tested_on": "HeLa", "assay": "ATP-based viability loss in HeLa cells – cell-based, CellTiter-Glo luminescence, cherry-pick samples, cytotoxicity control for MITF activator project, dose response (AID 540259)", "assay_type": "functional", "settings": "Homo sapiens"}, "[14]": {"assay": "Luminescence Cell-Based Dose Confirmation to Identify Activators of 5'UTR Stem-Loop Driven Alpha-Synuclein mRNA Translation in H4 Neuroglioblastoma Cells. [Related pubchem assays: 1829 (Project Summary), 1814 (Primary HTS)]", "assay_type": "functional"}, "H4": {"tested_on": "H4", "assay": "Luminescence Cell-Based Dose Response HTS to Identify Activators of 5'UTR Stem-Loop Driven Prion Protein mRNA Translation in H4 Neuroglioblastoma Cells. [Related pubchem assays: 1829 (Project Summary), 1814 (Primary HTS)]", "assay_type": "functional", "settings": "Homo sapiens"}, "cells [15]": {"assay": "cells", "assay_type": "functional, cell-based"}, "cells [16]": {"assay": "cells", "assay_type": "functional, cell-based", "remark": "listed apart in the source"}, "BJ": {"tested_on": "BJ", "assay": "cells", "assay_type": "functional, cell-based", "settings": "Homo sapiens"}, "[17]": {"molecular_target": "T3, Nuclear receptor subfamily 0 group B member 1 (Homo sapiens, UniProt P51843)", "T3 sequence (P51843 whole entry)": "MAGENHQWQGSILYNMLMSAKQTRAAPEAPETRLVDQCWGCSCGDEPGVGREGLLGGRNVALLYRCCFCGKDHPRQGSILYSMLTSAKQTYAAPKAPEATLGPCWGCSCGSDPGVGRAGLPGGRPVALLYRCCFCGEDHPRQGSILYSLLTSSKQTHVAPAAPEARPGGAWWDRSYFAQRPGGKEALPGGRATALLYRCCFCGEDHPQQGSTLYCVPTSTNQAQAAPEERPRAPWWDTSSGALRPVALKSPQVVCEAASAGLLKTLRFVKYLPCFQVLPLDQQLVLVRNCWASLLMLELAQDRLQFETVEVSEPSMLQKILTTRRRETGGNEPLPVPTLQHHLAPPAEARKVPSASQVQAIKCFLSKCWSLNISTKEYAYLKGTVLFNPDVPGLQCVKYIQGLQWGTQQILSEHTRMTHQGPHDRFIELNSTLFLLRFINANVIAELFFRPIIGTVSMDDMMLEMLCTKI", "assay_type": "functional, cell-based"}, "[18]": {"assay": "Luminescence-based dose response cell-based high throughput screening assay for cytotoxic compounds using the IEC-6 intestinal epithelial cell line. [Related pubchem assays: 1858 (Summary AID.), 1825 (Counterscreen.), 1907 (Confirmation screen.)]", "assay_type": "functional"}, "[19]": {"assay": "DRD fibroblast viability loss – cell-based, non-viral oncogenic, luminescence, dose response (AID 1934)", "assay_type": "functional", "settings": "Homo sapiens"}, "cells [20]": {"assay": "cells", "assay_type": "functional, cell-based", "remark": "listed apart in the source"}, "[21]": {"assay": "CellTiter-Glo luminescence survival assay, SW480 colon tumor line, concentration-response curve, half-maximal inhibitory concentration (AID 1117338)", "assay_type": "functional"}, "[22]": {"assay": "cytotoxicity toward HT-29 cells – cell-based, CellTiter-Glo luminescence, IC50, dose response (AID 1117330)", "assay_type": "functional"}, "[23]": {"assay": "cytotoxicity toward Colo320 cells – cell-based, CellTiter-Glo luminescence, IC50, dose response (AID 1117334)", "assay_type": "functional", "settings": "COLO 320"}, "[24]": {"assay": "cytotoxicity toward HCT116 cells – cell-based, CellTiter-Glo luminescence, IC50, dose response (AID 1117332)", "assay_type": "functional", "settings": "HCT-116"}, "[25]": {"assay": "Reduced DLD-1 viability, concentration-response, CellTiter-Glo luminescence (AID 1117352)", "assay_type": "functional"}, "Cytochrome P450 2C9": {"molecular_target": "Cytochrome P450 2C9 (Homo sapiens, UniProt P11712)", "sequence (P11712 whole entry)": "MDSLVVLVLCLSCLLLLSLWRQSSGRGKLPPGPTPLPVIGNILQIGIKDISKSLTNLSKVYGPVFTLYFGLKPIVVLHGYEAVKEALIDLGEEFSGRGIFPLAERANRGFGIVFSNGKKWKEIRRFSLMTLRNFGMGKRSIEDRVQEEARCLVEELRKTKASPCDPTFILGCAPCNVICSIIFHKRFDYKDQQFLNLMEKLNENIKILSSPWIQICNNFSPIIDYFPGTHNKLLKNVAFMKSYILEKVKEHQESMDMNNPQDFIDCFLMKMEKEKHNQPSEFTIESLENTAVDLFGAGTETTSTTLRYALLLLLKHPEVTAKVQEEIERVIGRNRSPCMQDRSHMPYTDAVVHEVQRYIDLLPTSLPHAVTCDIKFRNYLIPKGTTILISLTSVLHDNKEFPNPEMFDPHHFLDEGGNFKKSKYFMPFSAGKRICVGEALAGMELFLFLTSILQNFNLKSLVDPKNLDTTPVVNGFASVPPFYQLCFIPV", "settings": "Potency"}, "[26]": {"assay": "RKO cell viability reduction, dose response, CellTiter-Glo luminescence (AID 1117322)", "assay_type": "functional"}, "[27]": {"assay": "SNU-C1 cell viability reduction, dose response, CellTiter-Glo luminescence (AID 1117323)", "assay_type": "functional, cell-based"}}, "note": "Active and inactive are the calls of the source.", "data": [{"smiles": "Cc1cccc(OCc2nnc(SCC(=O)NC3CCCC3)n2C)c1", "values": [{"measurement": "IC50", "setting": "[1]", "value": "6.66 µM (active)"}, {"measurement": "IC50", "setting": "[2]", "value": "4.79 µM (active)"}]}, {"smiles": "Cc1cc(S(=O)(=O)N(Cc2ccccn2)Cc2ccco2)ccc1-n1cnnn1", "values": [{"measurement": "IC50", "setting": "Protein Tat", "value": "> 100 µM (active)"}]}, {"smiles": "Cc1ccc(CNC(=O)CCC2CCCN(Cc3cc4ccccc4o3)C2)o1", "note": "(centres undefined)", "values": [{"measurement": "EC50", "setting": "[3]", "value": "< 0.1 µM (active)"}, {"measurement": "EC50", "setting": "[4]", "value": "> 30 µM (not active)"}, {"measurement": "EC50", "setting": "cells [5]", "value": "0.222 µM (active)"}, {"measurement": "CC50", "setting": "[6]", "value": "33.8 µM (active)"}]}, {"smiles": "C#CCn1/c(=N/C(=O)c2cccs2)sc2cccc(OC)c21", "values": [{"measurement": "IC50", "setting": "[7]", "value": "> 100 µM (not active)"}, {"measurement": "IC50", "setting": "Prothrombin", "value": "> 100 µM (inactive)"}, {"measurement": "IC50", "setting": "[8]", "value": "> 100 µM (inactive)"}, {"measurement": "IC50", "setting": "[9]", "value": "24.9 µM (active)"}]}, {"smiles": "O=C(Nc1ccccc1)O/N=C/c1ccc(F)cc1", "values": [{"measurement": "EC50", "setting": "[10]", "value": "0.477 µM (active)"}, {"measurement": "EC50", "setting": "[11]", "value": "< 0.1 µM (active)"}, {"measurement": "IC50", "setting": "Protein skinhead-1", "value": "> 100 µM (inactive)"}, {"measurement": "EC50", "setting": "[12]", "value": "0.372 µM (active)"}, {"measurement": "EC50", "setting": "[13]", "value": "< 0.1 µM (active)"}, {"measurement": "AC50", "setting": "HeLa", "value": "54.2 µM (active)"}, {"measurement": "EC50", "setting": "[14]", "value": "0.321 µM (active)"}, {"measurement": "EC50", "setting": "H4", "value": "8.27 µM (active)"}]}, {"smiles": "O=C(N/N=C/C(Br)=C\\c1ccccc1)c1[nH]nc2c1CCC2", "values": [{"measurement": "EC50", "setting": "cells [15]", "value": "17.8 µM (active)"}, {"measurement": "EC50", "setting": "cells [16]", "value": "> 350 µM (not active)"}, {"measurement": "EC50", "setting": "BJ", "value": "0.223 µM (inconclusive)"}, {"measurement": "IC50", "setting": "[17]", "value": "> 0.834 µM (active)"}, {"measurement": "IC50", "setting": "[18]", "value": "0.183 µM (active)"}, {"measurement": "EC50", "setting": "[19]", "value": "0.3 µM (inconclusive)"}, {"measurement": "IC50", "setting": "cells [20]", "value": "> 67.5 µM (inactive)"}]}, {"smiles": "CCc1cccc2c3c([nH]c12)C(CC)(CC(=O)O)OCC3", "note": "(centres undefined) [ETODOLAC]", "values": [{"measurement": "IC50", "setting": "[21]", "value": "> 20 µM (inactive)"}, {"measurement": "IC50", "setting": "[22]", "value": "> 20 µM (inactive)"}, {"measurement": "IC50", "setting": "[23]", "value": "> 20 µM (inactive)"}, {"measurement": "IC50", "setting": "[24]", "value": "> 20 µM (inactive)"}, {"measurement": "IC50", "setting": "[25]", "value": "> 20 µM (inactive)"}, {"measurement": "AC50", "setting": "Cytochrome P450 2C9", "value": "39.8 µM (inconclusive)"}, {"measurement": "IC50", "setting": "[26]", "value": "> 20 µM (inactive)"}, {"measurement": "IC50", "setting": "[27]", "value": "> 20 µM (inactive)"}]}]}
